Test results as given in US6369083B1, “2-methoxyimino-2 (pyrinyloxymethyl) phenyl acetamides with polyether derivatives on the pyridine ring” (Dow AgroSciences LLC, priority 1998, dated 2002).

Legend:
Assay type in all cases: in vivo
Plasmopara viticola = test: Downy Mildew of Grape (PLASVI), 96 hour protectant; conditions: grape vines (cultivar Carignane), sprayed at 100 ppm, inoculated after 96 hours (protectant)
Method: Compound Formulation: […] Final treatment volumes were obtained by adding nine volumes 0.05kOO aqueous Tween-20 or Triton X-100, depending upon the pathogen. Downy Mildew of Grape (Plasmogara viticola-[…]) (96 Hour Protectant): Vines (cultivar Carignane) were grown from seed in a soilless peat-based potting mixture (Metromix) until the seedlings were 10-20 cm tall. These plants were then sprayed to run off with the test compound at a rate of 100 ppm. After 96 hours the test plants were inoculated by spraying with an aqueous sporangia suspension of Plasmopara viticola. The plants were then transferred to the greenhouse until disease developed on the untreated control plants. The following table presents the activity of typical compounds of the present invention when evaluated in these experiments. The effectiveness of the test compounds in controlling disease was rated using the following scale: […]

Erysiphe graminis = test: Powdery Mildew of Wheat (ERYSGT); conditions: wheat (cultivar Monon), inoculated, sprayed at 25 ppm after 48 hours
Method: Compound Formulation: […] Final treatment volumes were obtained by adding nine volumes 0.05kOO aqueous Tween-20 or Triton X-100, depending upon the pathogen. Powdery Mildew of Wheat (Erysiphe graminis-[…]): Wheat (cultivar Monon) was grown in a soilless peat-based potting mixture (Metromix) until the seedlings were 1-2 leaf (BBCH 12). These plants were then inoculated with Erysiphe graminis by dusting spores from stock plants onto the test plants. After 48 hours the plants were sprayed to run off with the test compound at a rate of 25 ppm and then kept in the greenhouse until disease developed on the untreated control plants. The following table presents the activity of typical compounds of the present invention when evaluated in these experiments. The effectiveness of the test compounds in controlling disease was rated using the following scale: […]

Leptosphaeria nodorum = test: Glume blotch of wheat (LEPTNO); conditions: wheat (cultivar Monon), sprayed at 100 ppm, inoculated after 24 hours
Method: (§1) Compound Formulation: […] Final treatment volumes were obtained by adding nine volumes 0.05kOO aqueous Tween-20 or Triton X-100, depending upon the pathogen. Glume blotch of wheat (Leptosphaeria nodorum-[…]): Wheat (cultivar Monon) was grown from seed in a soilless peat-based potting mixture (Metromix) until the seedlings were 1-2 leaf (BBCH 12). These plants were then sprayed to run off with the test compound at a rate of 100 ppm. After 24 hours the test plants were inoculated with an aqueous spore suspension of Leptosphaeria nodorum. The plants were then transferred to the greenhouse until disease developed on the untreated control plants. Brown rust (Puccinia recondita-PUCCRT): Wheat (cultivar Monon) was grown from seed in a soilless peat-based potting mixture (Metromix) until the seedlings were 1-2 leaf (BBCH 12). These plants were then sprayed to run off with the test compound at a rate of 100 ppm. After 24 hours the test plants were inoculated with an aqueous spore suspension of Puccinia recondita. The plants were then transferred to the greenhouse until disease developed on the untreated control plants. The following table presents the activity of typical compounds of the present invention when evaluated in these experiments. The effectiveness of the test compounds in controlling disease was rated using the following scale: […]

Puccinia recondita = test: Brown rust (PUCCRT); conditions: wheat (cultivar Monon), sprayed at 100 ppm, inoculated after 24 hours
Method: as §1

CNC(=O)C(=NOC)c1ccccc1COc1nc(OCC2COC(C)(C)O2)c(Cl)cc1Cl (centres unmarked) [Compound 1]
PLASVI control of plant disease (Plasmopara viticola): ++ (++ = 75-100 % control of plant disease) | ERYSGT control of plant disease (Erysiphe graminis): + (+ = 25-74% control of plant disease) | LEPTNO control of plant disease (Leptosphaeria nodorum): ++ (++ = 75-100 % control of plant disease) | PUCCRT control of plant disease (Puccinia recondita): ++ (++ = 75-100 % control of plant disease)

CNC(=O)C(=NOC)c1ccccc1COc1cccc(OCC2COC(C)(C)O2)n1 (stereo not drawn) [Compound 2, Benzeneacetamide, 2-[[[6-((2,2-dimethyl-1,3-dioxolanyl)-4-methoxy)-2-pyridinyl]oxy]methy]-α-(methoxyimino)-N-methyl-]
PLASVI control of plant disease (Plasmopara viticola): ++ (++ = 75-100 % control of plant disease) | ERYSGT control of plant disease (Erysiphe graminis): + (+ = 25-74% control of plant disease) | LEPTNO control of plant disease (Leptosphaeria nodorum): ++ (++ = 75-100 % control of plant disease) | PUCCRT control of plant disease (Puccinia recondita): ++ (++ = 75-100 % control of plant disease)

CNC(=O)C(=NOC)c1ccccc1COc1cccc(OC(COC)OC)n1 (centres unmarked) [Compound 22]
PLASVI control of plant disease (Plasmopara viticola): + (+ = 25-74% control of plant disease) | ERYSGT control of plant disease (Erysiphe graminis): ++ (++ = 75-100 % control of plant disease) | LEPTNO control of plant disease (Leptosphaeria nodorum): + (+ = 25-74% control of plant disease)

CCOCCOc1nc(OCc2ccccc2C(=NOC)C(=O)NC)ccc1Cl [Compound 24, Benzeneacetamide, 2-[[[5-chloro-6-(2-ethoxyethoxy)-2-pyridinyl]oxy]methyl]-α-(methoxyimino)-N-methyl-]
PLASVI control of plant disease (Plasmopara viticola): ++ (++ = 75-100 % control of plant disease) | ERYSGT control of plant disease (Erysiphe graminis): ++ (++ = 75-100 % control of plant disease) | LEPTNO control of plant disease (Leptosphaeria nodorum): + (+ = 25-74% control of plant disease)

CNC(=O)C(=NOC)c1ccccc1COc1cccc(SCCSC(C)(C)C)n1 [Compound 52]
PLASVI control of plant disease (Plasmopara viticola): ++ (++ = 75-100 % control of plant disease) | ERYSGT control of plant disease (Erysiphe graminis): ++ (++ = 75-100 % control of plant disease) | LEPTNO control of plant disease (Leptosphaeria nodorum): + (+ = 25-74% control of plant disease)

CNC(=O)C(=NOC)c1ccccc1COc1cccc(OCCOC(C)C)n1 [Compound 53]
PLASVI control of plant disease (Plasmopara viticola): ++ (++ = 75-100 % control of plant disease) | ERYSGT control of plant disease (Erysiphe graminis): ++ (++ = 75-100 % control of plant disease) | LEPTNO control of plant disease (Leptosphaeria nodorum): − (− = 0-24% control of plant disease)

CNC(=O)C(=NOC)c1ccccc1COc1cccc(OCCCOC(C)C)n1 [Compound 54]
PLASVI control of plant disease (Plasmopara viticola): ++ (++ = 75-100 % control of plant disease) | ERYSGT control of plant disease (Erysiphe graminis): ++ (++ = 75-100 % control of plant disease) | LEPTNO control of plant disease (Leptosphaeria nodorum): ++ (++ = 75-100 % control of plant disease)

CCCOCCCOc1cccc(OCc2ccccc2C(=NOC)C(=O)NC)n1 [Compound 89]
PLASVI control of plant disease (Plasmopara viticola): − (− = 0-24% control of plant disease) | ERYSGT control of plant disease (Erysiphe graminis): + (+ = 25-74% control of plant disease) | LEPTNO control of plant disease (Leptosphaeria nodorum): − (− = 0-24% control of plant disease)
